“Also recorded” adds a separate entry of the source. Where a SMILES comes first, the peptide text is derived from it. Bridges are numbered along the chain shown (N, C = ends).
Key:
[1] = cited from earlier work
Text: Transient receptor potential vanilloid 1 (TRPV1) ion channel is a polymodal nociceptor broadly expressed in sensory neurons involved in pain sensation, making this channel a target for analgesia. Since TRPV1 deletion in rodents led to significant tolerance to noxious heat hyperalgesia[3],[4], antagonists of TRPV1 became the first choice to develop analgesic agents targeting TRPV1 in the past decades. Pharmacological inhibition TRPV1 indeed effectively alleviates dental, rectal, and thermal pain[5],[6]. However, TRPV1 also plays critical roles in thermoregulation, thus its antagonists suf ... || Positive allosteric modulator (PAM) is defined as a ligand without direct activation of its target, but potentiates the activity of agonists of targets. PAMs of TRPV1 have shown significant analgesic effect by inducing calcium overloading in previous reports[11],[12]. For instance, MRS1477 is developed as a small molecule PAM of TRPV1[13]. […] However, as both De1 and De3 bind to the intracell ... || TRPV1 plays a critical role in the pathogenesis of chronic pain[30]–[33], and has been a long-pursued target for pain management. To circumvent the side effects of the first-generation channel inhibitors occurred in clinical trials, alternative strategies such as the PAMs of TRRV1 have been developed.

TRPV1 [2] = details: cited from earlier work
Text: Positive allosteric modulator (PAM) is defined as a ligand without direct activation of its target, but potentiates the activity of agonists of targets. PAMs of TRPV1 have shown significant analgesic effect by inducing calcium overloading in previous reports[11],[12]. For instance, MRS1477 is developed as a small molecule PAM of TRPV1[13]. […] For instance, noxious heat, proton, and divalent cations induce conformational changes in the outer pore to activate TRPV1[27]–[29].

TRPA1 = assay: Selectivity: AITC-evoked TRPA1 current; type: cell-based, human; details: 30 μM AITC; normalized to 1 mM AITC; mean ± S.E.M., n = 4
Description: (§1) HEK293T cells are cultured using DMEM medium contained 10% FBS in a cell incubator with 5% CO2 at 37 °C. Plasmids of murine TRPV1, TRPV2, TRPV3 and human TRPA1 are labeled with YFP or GFP as indicators for subsequent electrophysiological recordings. cDNA constructs of ion channels were transiently transfected with Lipofectamine 2000 (Invitrogen, Carlsbad, CA). And one or 2 days after transient transfection, electrophysiological recordings were performed.
(§2) Patch-clamp recordings were carried out with a HEKA EPC10 amplifier controlled by PatchMaster software (HEKA). Patch pipettes were prepared from borosilicate glass and fire-polished to resistance of 3–8 MΩ by P-97 puller. Both bath solution and pipette solution contained 130 mM NaCl, 10 mM glucose, 0.2 mM EDTA, and 3 mM HEPES and were adjusted to pH 7.2–7.4 with NaOH for whole-cell recordings. For solution with pH lower than 6.5, HEPES was replaced by MES. Whole-cell recordings were performed at ±80 mV. Current was sampled at 10 kHz and filtered at 2.9 kHz. All recordings were performed at room temperature (25 °C). A gravity-driven system (RSC-200, Bio-Logic) with freely rotated perfusion tubes was used for the perfusion of peptide or ligands. Bath and ligand solution were delivered through separate tubes to minimize the mixing of solutions. Patch pipette holding cells was placed in front of the perfusion tube outlet for perfusion.

[3] = test system: Trpv1+ nerve fibers, Trpv1-Ai32 / Trpv1-Ai14 mice; assay: Trpv1+ intra-epidermal nerve fiber (IENF) quantification; type: in vivo; details: folded s-RhTx without capsaicin; words
Description: (§3) Adult C57 BL/6 mice (male, 8–10 weeks) and Trpv1^-/- mice (Jax Strain #:003770) were used for behavioral studies. To specifically label Trpv1-positive nerve fibers in skin tissues, Trpv1-Cre mice[36] (Jax Strain #:017769) were crossed with floxed reporter lines (Ai32, Jax Strain #:012569 or Ai14, Jax Strain #:007914) to get the transgenic reporter (Trpv1-Ai32 or Trpv1-Ai14) mice. Mice were group-housed at 22–24 °C and relative humidity of 30–70% under the 12 h light-dark cycle with access to standard food and water ad libitum. All the animal procedures were approved by the Institutional Animal Care & Use Committee (IACUC) of Zhejiang University.
(§4) After appropriate survival times, the mice were deeply anesthetized with isoflurane and perfused through the ascending aorta with PBS, followed by 4% PFA. After the perfusion, the hind paw glabrous skins and L4-L6 DRGs were removed and postfixed in the same fixative overnight. Skin sections (30 μm) and DRG sections (10 μm) were cut in a cryostat. Sections were blocked with 2% BSA for 2 h at room temperature and then incubated with Deep-red 640/660-conjugated Nissl (1:1000) at room temperature for 2 h. Sections were then incubated with DAPI (1:10,000, Vector Laboratories, catalog H-1200) for 5 min, followed by three times washing with PBS for 5 min each. The stained and mounted sections were examined with a Nikon fluorescence microscope, and images were captured with a charge-coupled device Spot camera. For quantification analysis, at least three sections from each mouse were selected, and at least three mice were analyzed in each group. To evaluate Trpv1-positive nerve fiber degeneration, transgenic reporter (Trpv1-Ai32 or Trpv1-Ai14) mice were used for the quantification of intra-epidermal nerve fiber (IENF) density. IENF density was calculated by counting the number of IENF crossing the epidermis-dermis boundary within unit length.

[4] = type: in vivo, mice; details: i.p. 10 mg kg-1 peptide with capsaicin 1 mg kg-1; n = 6; words
Text: (§5) Figure R3. […] (A) Statistical […]
(§6) results of hind paw thickness in mice.
(§7) N.S., not significant, two-way ANOVA. n = 9 mice in each group. (B) H&E staining showing the results of cell […]
(§8) N.S., not significant, n = 3 mice in each group. Scale bar, 50 μm. All data were shown as mean ± s.e.m. […]
(§9) different experiment should be performed.
(§10) Response: We thank the reviewer for the insightful comments. We also agree with the reviewer that the local injections of s-RhTx in this study are not likely to change body temperature. To test […]
(§11) 1) in mice and measured body temperature. […]
(§12) n = 6 mice in each group. No significance in two-way ANOVA. All data were shown as mean ± s.e.m. […]

mouse hind paw = type: in vivo, mice; details: 2 μg folded s-RhTx with capsaicin 200 ng; n = 9; words
Text: as §5, §6, §7, §8, §9, §10, §11, §12

mouse hind paw skin = type: in vivo, mice; details: 1 week; folded s-RhTx with capsaicin; n = 3; words
Text: as §5, §6, §7, §8, §9, §10, §11, §12

TRPV1 E652D [5] = molecular target: T1, TRPV1 E652D (Mus musculus, UniProt Q704Y3, E652D); assay: Calcium imaging, TRPV1 mutant E652D; type: cell-based, murine; details: 30 μM s-RhTx with 10 nM capsaicin; n = 45
Description: (§13) Site mutations of mTRPV1 were generated by Fast Mutagenesis Kit (Takara Bio). Primers used to generate point mutations are summarized in Supplementary Table 1. All mutations were confirmed by sequencing.
(§14) Calcium imaging assay was performed as previously described[12],[20]. In brief, HEK293T cells expressing TRPV1 were incubated with 2 μM Fluo-4 AM (Thermo Fisher) in 2 mM calcium Ringer’s solution (140 mM NaCl, 5 mM KCl, 2 mM MgCl2, 2 mM CaCl2, 10 mM glucose, and 10 mM HEPES, pH 7.4). Fluorescence images of HEK293T cells were acquired with Nikon Eclipse Ti2 microscope with optiMOS charge-coupled device camera controlled by the Ocular Software (Molecular Devices). Fluo-4 AM was excited at 500/20-nm excitation, and fluorescence emission was detected at 535/30-nm. Fluorescence images were analyzed with Fiji software and Office Excel.

TRPV1 E652D [6] = molecular target: T1, TRPV1 E652D; assay: Mutant cycle analysis: concentration response, Kd and L on TRPV1 E652D; type: cell-based, murine; details: mean ± S.E.M.
Description: In this analysis, the ligand binding (represented by Kd) and subsequent conformational changes leading to channel opening (represented by L) were separately quantified. Kd and L were calculated by the formulae: EC50 = Kd/(1 + L) and Po max = L/(1 + L), when Po max and EC50 are experimentally measured[20],[21]. Previously we have successfully performed this analysis to establish the interactions between peptide toxin BmP01 and TRPV1[16].
as §13
Patch-clamp recordings were carried out with a HEKA EPC10 amplifier controlled by PatchMaster software (HEKA). Patch pipettes were prepared from borosilicate glass and fire-polished to resistance of 3–8 MΩ by P-97 puller. Both bath solution and pipette solution contained 130 mM NaCl, 10 mM glucose, 0.2 mM EDTA, and 3 mM HEPES and were adjusted to pH 7.2–7.4 with NaOH for whole-cell recordings. […]
(§15) Data from whole-cell recordings were analyzed in Igor Pro version 5.05 (WaveMatrix). […]
The strength of coupling was determined by the coupling energy (kT multiplied by LnΩ, where k is the Boltzmann constant and T is temperature in Kelvin). LnΩ was calculated by the following equation: LnΩ=LnKd_1⋅Kd_4/Kd_2⋅Kd_3

TRPV1 [7] = molecular target: T2, TRPV1 (Mus musculus, UniProt Q704Y3); assay: Calcium imaging, HEK293T cells expressing TRPV1; type: cell-based, murine; details: 30 μM s-RhTx with 10 nM capsaicin; n = 12
Description: as §1, §14

TRPV1 [8] = molecular target: T2, TRPV1; assay: Whole-cell patch clamp: potentiation of capsaicin-evoked TRPV1 current; type: cell-based, murine
Description: as §1
as §2, with “Patch pipette holding cells was placed in front of the perfusion tube outlet for perfusion.” left out
as §15

TRPV1 [9] = molecular target: T2, TRPV1; assay: Whole-cell patch clamp: potentiation of proton-evoked TRPV1 current; type: cell-based, murine; details: pH 6.5; Hill fit; n = 4 cells; read-out: EC50, enhancement of proton-induced current
Description: as §1
as §2, with “Patch pipette holding cells was placed in front of the perfusion tube outlet for perfusion.” left out
as §15

[10] = local delivery; words
Description: 20 μl of CFA was injected first to induce a chronic pain model. […] All data were shown as mean ± S.E.M. Source data are available as a Source Data file.
Complete Freund’s adjuvant (CFA) was injected at a volume of 20 μl to induce chronic inflammatory pain.

[11] = test system: DRG neurons, Trpv1-Ai14 mice; assay: Trpv1+ and Nissl+ neurons in DRGs; type: in vivo; details: for Trpv1+ neurons (% of all neurons): sheet S5e
Description: as §3, §4

TRPV2 = assay: Selectivity: 2-APB-evoked TRPV2 current; type: cell-based, murine; details: 500 μM 2-APB; normalized to 4 mM 2-APB; mean ± S.E.M., n = 4
Description: as §1, §2

TRPV3 = assay: Selectivity: 2-APB-evoked TRPV3 current; type: cell-based, murine; details: 30 μM 2-APB; normalized to 1 mM 2-APB; mean ± S.E.M., n = 4
Description: as §1, §2

T2 sequence (Q704Y3 whole entry): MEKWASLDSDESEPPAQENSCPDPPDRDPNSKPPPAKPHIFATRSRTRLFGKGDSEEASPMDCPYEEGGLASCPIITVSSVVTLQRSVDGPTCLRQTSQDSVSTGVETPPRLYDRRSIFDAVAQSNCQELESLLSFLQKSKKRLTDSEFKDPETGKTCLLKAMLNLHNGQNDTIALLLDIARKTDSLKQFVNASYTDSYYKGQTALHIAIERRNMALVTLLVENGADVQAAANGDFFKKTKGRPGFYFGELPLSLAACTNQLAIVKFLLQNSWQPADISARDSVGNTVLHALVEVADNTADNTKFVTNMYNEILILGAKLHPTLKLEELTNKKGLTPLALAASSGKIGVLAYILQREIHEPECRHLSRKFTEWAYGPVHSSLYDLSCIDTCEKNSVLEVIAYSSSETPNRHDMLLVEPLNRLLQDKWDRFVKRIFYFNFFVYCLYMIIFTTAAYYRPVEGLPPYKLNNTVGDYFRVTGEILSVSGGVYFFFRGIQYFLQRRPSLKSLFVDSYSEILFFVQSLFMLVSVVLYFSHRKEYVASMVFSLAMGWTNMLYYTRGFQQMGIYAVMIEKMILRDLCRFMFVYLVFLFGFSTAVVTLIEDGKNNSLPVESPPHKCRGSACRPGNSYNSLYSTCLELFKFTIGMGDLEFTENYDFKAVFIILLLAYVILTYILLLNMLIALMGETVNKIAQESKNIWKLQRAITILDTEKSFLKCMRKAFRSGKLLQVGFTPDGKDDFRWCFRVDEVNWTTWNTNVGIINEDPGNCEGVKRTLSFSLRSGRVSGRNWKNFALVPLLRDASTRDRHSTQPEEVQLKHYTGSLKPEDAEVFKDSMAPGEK
T1 sequence (Q704Y3 whole entry E652D): as the sequence (Q704Y3 whole entry) above, with E652D counted along it

Q: With CCOC(=O)C1=C(c2ccccc2)NC(C)=C(C(=O)SCCOC)C1CC (centres unmarked) [MRS1477] as the compound, how does the “duration of analgesic effects” value [1] read?
A: The value was “about two weeks”.

Q: What about the “TRPV1 activation by capsaicin” value (TRPV1 [2]) of the same compound?
A: Its value is “enhances TRPV1 activation by capsaicin”.

Q: With C=CCN=C=S [AITC] as the compound, how does the “normalized TRPA1 current, AITC alone” value (TRPA1) read?
A: Its value is 41.06 ± 12.85%.

Q: What does the source list for CC[C@H](C)[C@H](NC(=O)[C@@H]1CSSC[C@@H]2NC(=O)[C@H]([C@@H](C)O)NC(=O)[C@H](C(C)C)NC(=O)CNC(=O)[C@H](CC(N)=O)NC(=O)[C@@H](NC(=O)[C@@H]3CCCN3)CSSC[C@H](NC(=O)[C@H](CCCNC(=N)N)NC(=O)[C@H](Cc3ccc(O)cc3)NC(=O)CNC(=O)[C@H](CO)NC(=O)[C@@H]3CCCN3C2=O)C(=O)N[C@@H](CO)C(=O)N[C@@H]([C@@H](C)CC)C(=O)N[C@@H](C(C)C)C(=O)N[C@@H](CC(=O)O)C(=O)N[C@@H](CCCCN)C(=O)N[C@@H](CCC(N)=O)C(=O)N1)C(=O)N[C@@H](CCCCN)C(=O)N[C@@H](CCCCN)C(=O)N[C@@H](CCC(=O)O)C(=O)O [s-RhTx] (H-PCNGVTCPSGYRCSIVDKQCIKKE-OH; disulfide 2-13, 7-20)?
A: IENF degeneration, peptide alone [3]: did not induce; body temperature change, systemic [4]: didn’t change body temperature; local inflammation of hind paw (mouse hind paw): no obvious local; recruitment of immune cells (mouse hind paw skin): did not induce the recruitment; increase of intracellular calcium fluorescence, E652D (TRPV1 E652D [5]): 47.5 ± 0.05%; EC50 (TRPV1 E652D [6]): 7.16 ± 1.42 µM; enhancement of intracellular calcium, WT TRPV1 (TRPV1 [7]): 56.09 ± 8.62%; EC50 (TRPV1 [8]): 0.89 ± 0.45 µM; EC50 (TRPV1 [9]): 1.58 ± 0.5 µM; body temperature change [10]: did not cause any changes in the body temperature; Trpv1+ neuron proportion and total neuron density in DRGs ([11]; co-injection with capsaicin, 1 and 4 weeks, words, listed as folded s-RhTx): did not change at 1 week; also recorded: not significantly changed; Trpv1+ neurons (% of all neurons) ([11]; 1 week, Mouse # 1): 33.4%; Trpv1+ neurons (% of all neurons) ([11]; 1 week, Mouse # 2): 33.4%; Trpv1+ neurons (% of all neurons) ([11]; 1 week, Mouse # 3): 35.2%; Trpv1+ neurons (% of all neurons) ([11]; 4 weeks, Mouse # 1): 37.1%; Trpv1+ neurons (% of all neurons) ([11]; 4 weeks, Mouse # 2): 32.1%; Trpv1+ neurons (% of all neurons) ([11]; 4 weeks, Mouse # 3): 33.0%

Q: For C=C(C)[C@]12C[C@@H](C)[C@@]34O[C@](Cc5ccccc5)(O[C@@H]1[C@@H]3C=C(COC(=O)Cc1ccc(O)c(OC)c1)C[C@]1(O)C(=O)C(C)=C[C@@H]41)O2 [resiniferatoxin], which “cell death in TRPV1-expressing neurons” value [1] is on record?
A: The value was “induces cells death in TRPV1-expressing neurons”.

Q: Which “normalized TRPV2 current, 2-APB alone” value (TRPV2) does the source give for NCCOB(c1ccccc1)c1ccccc1 [2-APB] here?
A: Its value is 7.06 ± 2.25%.

Q: What about the “normalized TRPV3 current, 2-APB alone” value (TRPV3) of the same compound?
A: Its value is 7.08 ± 3.57%.

From PMC9810691, “Structure-guided peptide engineering of a positive allosteric modulator targeting the outer pore of TRPV1 for long-lasting analgesia” (Nature Communications, 2023)
